Measurements taken from BindingDB's records for doi:10.1016/j.bmcl.2003.11.079 (Millennium Pharmaceuticals, 2004).

Molecular target: Trypsin
Experiment: Inhibitory concentration against trypsin was determined

- IC50: > 10 µM
SMILES: NS(=O)(=O)c1ccccc1-c1ccc(C(=O)Nc2ccccc2C(=O)Nc2ccc(Br)cn2)cc1 [2'-Sulfamoyl-biphenyl-4-carboxylic acid [2-(5-bromo-pyridin-2-ylcarbamoyl)-phenyl]-amide]
